Measured values taken from patent US11266609B2, “Bacitracin and/or daptomycin combined with cannabidiol for treatment of bacterial infections” (priority 2017, dated 2022).
≈ marks a conversion by molar mass, not a printed value.

Columns and labels:
MRSA USA300 FPR3757 = experiment: microbe, parasite or virus in culture; type: cell-based, Staphylococcus aureus; settings: for FIC Index: WT USA300, combination of cannabidiol with the respective antibiotic, synergy <= 0.5, no interaction 0.5-4.0, antagonism > 4
Procedure: (§1) The resistant bacterium MRSA USA300 FPR3757 (USA300) was the main used bacterium throughout this study. MRSA was grown in Brain Heart Infusion (BHI) or Müeller Hinton (MH) media on plate or in liquid cultures with agitation at 37° C.
(§2) An ON culture was made by inoculating a bacterial colony in either 5 mL of MH or BHI and incubating at 37° C. with agitation. The antibiotic of interest was added to a row of a sterile 96-well plate (VWR) and a serial dilution was made down the rows containing 50 μL of MH or BHI media in each well, resulting in 2-fold dilution for each row. The ON culture was diluted to OD625 at approximately 1.0 followed by a 1:100 dilution to approximately OD625=0.01 of which 50 μL was added to each well to a final volume of 100 μL. The 96-well plate was incubated at 37° C. with shaking at 225 rpm for approximately 18-24 hours. Presence and absence of growth were determined by visual appearance.
B) The other screen was based on fractional inhibitory concentration (FIC) index.

MRSA USA300 = experiment: Micro dilution growth experiments using oCelloScope, CBD combined with antibiotics (FIG. 1); type: cell-based, Staphylococcus aureus; settings: combination with CBD 1-2 μg/mL; bacitracin 16, daptomycin 4, tetracycline 16, fosfomycin 16, dicloxacillin 0.0625, chlorhexidine 0.25, vancomycin 0.5 μg/mL (FIG. 1)
Procedure: BCA: Background corrected absorption. ? Growth control, ? CBD, -▴- Antibiotic, ? Combination.
as §1
An ON culture was made by inoculating a bacterial colony in either 5 mL of MH or BHI at incubated at 37° C. with agitation. 25 μL of specific concentrations of the antibiotic and cannabinoid to be tested was added to the desired wells of a sterile 96-well plate (Thermo Scientific). 25 μL of MH or BHI media was added to the wells only containing one of the two compounds tested. The bacterial ON culture was diluted to a final OD600 nm of 0.005 and 50 μL was dispensed into each well to a final volume of 100 μL. To decrease evaporation, 2 mL of pre-heated water was added to the corners of the 96-well plate containing cavities. The plate was placed in the oCelloScope inside an incubator at 37° C. Illumination level and focus was adjusted for each well and the growth was measured for approximately 25 hours. Measurements were performed every half an hour for the first half of the time and every hour for the last half using the UniExplorer software. Data retrieved was given in Background corrected absorption (BCA), formerly known as pixel histogram summation (PHS), an algorithm enabling determination of bacterial growth kinetics resulting from images taken with the oCelloScope camera.
A) A screen was performed using the Philips oCelloScope enabling measurements of bacterial growth in presence or absence of either cannabidiol alone or in combination with an antibiotic or antimicrobial, through a 3D scanning system in 96-well plates.

E. faecalis (13-327129) = experiment: microbe, parasite or virus in culture; type: cell-based, Enterococcus faecalis; settings: Enterococcus faecalis; E. faecalis (13-327129); read-out: MIC
Procedure: (§3) Additional bacteria Enterococcus faecalis (13-327129), Enterococcus faecalis (16-7418), Methicillin-resistant Staphylococcus epidermidis (933010 3F-16 b4), Listeria monocytogenes EGD, Pseudomonas aeruginosa (PA01), Salmonella typhimurium (14028), Klepsiella pneumoniae (CAS55), Vibrio cholerae (A1522), and Escherichia coli (UTI89) were either grown in BHI or Lysogeny broth (LB) media.
as §2, with “appearance. FIC index was calculated as follows (Alam M T et al. Antibacterial activity of different organic extracts of Achyranthes aspera and Cassia alata. J Sci Res. 2009).” for “appearance.”
(§4) To study the bacterial spectrum of the combination, CBD and bacitracin growth measurements of other Gram-positive bacteria tests on Enterococcus faecalis, an MRSE strain and a strain of Listeria monocytogenes were performed as described in Example 1.
(§5) The MIC for bacitracin and CBD and the respective FIC values are visualized in table 2 for the Gram-positive bacteria and are calculated based on two biological replicates.

E. faecalis (16-7418) = experiment: microbe, parasite or virus in culture; type: cell-based, Enterococcus faecalis; settings: Enterococcus faecalis; E. faecalis (16-7418); read-out: MIC
Procedure: as §3
as §2, with “appearance. FIC index was calculated as follows (Alam M T et al. Antibacterial activity of different organic extracts of Achyranthes aspera and Cassia alata. J Sci Res. 2009).” for “appearance.”
as §4, §5

MRSE (933010 3F-16 b4) = experiment: microbe, parasite or virus in culture; type: cell-based, Methicillin-resistant Staphylococcus epidermidis; settings: Staphylococcus epidermidis, MRSE
Procedure: as §3
as §2, with “appearance. FIC index was calculated as follows (Alam M T et al. Antibacterial activity of different organic extracts of Achyranthes aspera and Cassia alata. J Sci Res. 2009).” for “appearance.”
as §4, §5

L. monocytogenes EGD = experiment: microbe, parasite or virus in culture; type: cell-based, Listeria monocytogenes; settings: Listeria monocytogenes; L. monocytogenes EGD; read-out: MIC
Procedure: as §3
as §2, with “appearance. FIC index was calculated as follows (Alam M T et al. Antibacterial activity of different organic extracts of Achyranthes aspera and Cassia alata. J Sci Res. 2009).” for “appearance.”
as §4, §5

Escherichia coli (UTI89) = experiment: MIC, Gram-negative bacteria; type: cell-based; settings: above tested concentrations
Procedure: as §3
as §2, with “appearance. FIC index was calculated as follows (Alam M T et al. Antibacterial activity of different organic extracts of Achyranthes aspera and Cassia alata. J Sci Res. 2009).” for “appearance.”
(§6) To further assess the spectrum of use for the combination of CBD and bacitracin, growth of Gram-negative bacteria upon treatment was measured as well as described in Example 1.
(§7) The Gram-negative bacteria tested were strains of Pseudomonas aeruginosa, Salmonella typhimurium, Klepsiella pneumoniae, Vibrio cholera, and Escherichia coli. MIC for CBD and bacitracin in the Gram-negative bacteria are visualized in table 3, and were both above tested concentrations.

[1] = system: Klepsiella pneumoniae (CAS55); experiment: MIC, Gram-negative bacteria; type: cell-based; settings: above tested concentrations
Procedure: as §3
as §2, with “appearance. FIC index was calculated as follows (Alam M T et al. Antibacterial activity of different organic extracts of Achyranthes aspera and Cassia alata. J Sci Res. 2009).” for “appearance.”
as §6, §7

[2] = system: Pseudomonas aeruginosa (PA01); experiment: MIC, Gram-negative bacteria; type: cell-based; settings: above tested concentrations
Procedure: as §3
as §2, with “appearance. FIC index was calculated as follows (Alam M T et al. Antibacterial activity of different organic extracts of Achyranthes aspera and Cassia alata. J Sci Res. 2009).” for “appearance.”
as §6, §7

[3] = system: Salmonella typhimurium (14028); experiment: MIC, Gram-negative bacteria; type: cell-based; settings: Salmonella enterica, above tested concentrations
Procedure: as §3
as §2, with “appearance. FIC index was calculated as follows (Alam M T et al. Antibacterial activity of different organic extracts of Achyranthes aspera and Cassia alata. J Sci Res. 2009).” for “appearance.”
as §6, §7

Vibrio cholerae (A1522) = experiment: microbe, parasite or virus in culture; type: cell-based; settings: Vibrio cholerae
Procedure: as §3
as §2, with “The 96-well plate was incubated at 37° C. with shaking at 225 rpm for approximately 18-24 hours.” left out, “appearance. FIC index was calculated as follows (Alam M T et al. Antibacterial activity of different organic extracts of Achyranthes aspera and Cassia alata. J Sci Res. 2009).” for “appearance.”
To further assess the spectrum of use for the combination of CBD and bacitracin, growth of Gram-negative bacteria upon treatment was measured as well as described in Example 1. […]

[4] = target: T1, bacterial undecaprenyl pyrophosphate (UPP) synthase (Staphylococcus aureus, UniProt P60477); settings: The Journal of Antibiotics 69, 798-805 (2016); cited from earlier work
T1 sequence (P60477 1-256): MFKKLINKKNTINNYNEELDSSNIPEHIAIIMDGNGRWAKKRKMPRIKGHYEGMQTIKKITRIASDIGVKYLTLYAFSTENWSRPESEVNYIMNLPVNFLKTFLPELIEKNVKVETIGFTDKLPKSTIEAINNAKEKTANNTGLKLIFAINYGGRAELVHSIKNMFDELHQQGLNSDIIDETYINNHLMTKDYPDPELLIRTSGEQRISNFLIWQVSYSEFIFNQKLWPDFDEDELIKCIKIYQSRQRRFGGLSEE

[5] = system: Gram-positive bacteria including methicillin-resistant Staphylococcus aureus (MRSA); settings: particularly against Gram-positive bacteria including MRSA; cited from earlier work

**Q.** Which MIC (MRSA USA300 FPR3757; USA300) does the source give for `CCCCCCCCCC(=O)N[C@@H](Cc1c[nH]c2ccccc12)C(=O)N[C@H](CC(N)=O)C(=O)N[C@@H](CC(=O)O)C(=O)N[C@@H]1C(=O)NCC(=O)N[C@@H](CCCN)C(=O)N[C@@H](CC(=O)O)C(=O)N[C@H](C)C(=O)N[C@@H](CC(=O)O)C(=O)NCC(=O)N[C@H](CO)C(=O)N[C@@H]([C@H](C)CC(=O)O)C(=O)N[C@@H](CC(=O)c2ccccc2N)C(=O)O[C@@H]1C` [Daptomycin] here?
**A.** 16 µg/mL (≈ 9.87 µM)

**Q.** And the “synergistic potential in growth curves” value (MRSA USA300)?
**A.** to some degree

**Q.** For `C=C(C)[C@@H]1CCC(C)=C[C@H]1c1c(O)cc(CCCCC)cc1O` [Cannabidiol (CBD), Cannabidiol], which MIC (MRSA USA300 FPR3757; MRSA USA300 FPR3757, Table 2, two biological replicates) is on record?
**A.** 4 µg/mL (≈ 12.7 µM)

**Q.** And the MIC (MRSA USA300 FPR3757; Staphylococcus aureus)?
**A.** 4 µg/mL (≈ 12.7 µM)

**Q.** What about the MIC (E. faecalis (13-327129)) of the same compound?
**A.** 16 µg/mL

**Q.** And the MIC (E. faecalis (16-7418))?
**A.** 16 µg/mL

**Q.** What about the MIC (MRSE (933010 3F-16 b4)) of the same compound?
**A.** 4 µg/mL

**Q.** What about the MIC (L. monocytogenes EGD) of the same compound?
**A.** 4 µg/mL

**Q.** And the MIC (Escherichia coli (UTI89))?
**A.** > 128 µg/mL

**Q.** And the MIC [1]?
**A.** > 128 µg/mL

**Q.** And the MIC [2]?
**A.** > 128 µg/mL

**Q.** And the MIC [3]?
**A.** > 128 µg/mL

**Q.** What about the MIC (Vibrio cholerae (A1522)) of the same compound?
**A.** > 128 µg/mL

**Q.** Which results are given for `CCCCCc1cc(O)c(C/C=C(\C)CCC=C(C)C)c(O)c1` [Cannabigerol (CBG), Cannabigerol]?
**A.** FIC index (with bacitracin) (MRSA USA300 FPR3757; USA300): 0.88; FIC index (with daptomycin) (MRSA USA300 FPR3757; USA300): 1.0; MIC (MRSA USA300 FPR3757; USA300, Table 4, unit not given): 4

**Q.** What does the source list for `Cc1onc(-c2c(Cl)cccc2Cl)c1C(=O)N[C@@H]1C(=O)N2[C@@H]1SC(C)(C)[C@@H]2C(=O)O` [Dicloxacillin]?
**A.** MIC (MRSA USA300 FPR3757; Staphylococcus aureus): 0.25 µg/mL (≈ 0.532 µM); FIC Index (MRSA USA300 FPR3757): 2; synergistic potential in growth curves (MRSA USA300): no synergistic potential

**Q.** Which results are given for `CN[C@H](CC(C)C)C(=O)N[C@H]1C(=O)N[C@@H](CC(N)=O)C(=O)N[C@H]2C(=O)N[C@H]3C(=O)N[C@H](C(=O)N[C@H](C(=O)O)c4cc(O)cc(O)c4-c4cc3ccc4O)[C@H](O)c3ccc(c(Cl)c3)Oc3cc2cc(c3O[C@@H]2O[C@H](CO)[C@@H](O)[C@H](O)[C@H]2O[C@H]2C[C@](C)(N)[C@H](O)[C@H](C)O2)Oc2ccc(cc2Cl)[C@H]1O` [Vancomycin]?
**A.** MIC (MRSA USA300 FPR3757; Staphylococcus aureus): 2 µg/mL (≈ 1.38 µM); FIC Index (MRSA USA300 FPR3757): 2; synergistic potential in growth curves (MRSA USA300): no synergistic potential

**Q.** Which results are given for `COc1cc(O)c2c(O)c3c(c4c2c1C1(C4)C(C)=CCCC1(C)C)C(O)C1(O)CC(=O)C(C(C)=O)=C(O)C1(O)C3=O` (stereo not drawn) [Spirohexaline]?
**A.** IC50 [4]: 9 µM; antimicrobial activity [5]: showed antimicrobial activity
